# Reference: patent publication US8003369B2, “Bacteriolytic agent” (priority 2005, dated 2011)
# System: Escherichia coli (E-coli) cell
# Experiment: Bacteriolytic power (number of bacterial cells after 3 days vs blank)
# Type: cell-based
# Conditions: 50 μl of agent diluted to 50% as surfactant in 0.5 ml E. coli cell solution, 20° C.
# Procedure: Into a 2 ml-screw tube were added 0.5 ml of a solution of an Escherichia coli (E-coli) cell and 50 μl of a bacteriolytic agent aqueous diluted solution which had been diluted so as to be a concentration of 50% as a surfactant with a micropipette, and the mixture was mixed well. The mixture was stored by allowing to stand at 20° C. for 3 days, which was used as a sample, and the number of bacterium cells was measured with a super deep profile measurement microscope (manufactured by KEYENCE CORPORATION, VK-8500). Bacteriolytic power was calculated by a following equation.
# As a blank, 50 μl of ion-exchanged water was used in place of a bacteriolytic agent aqueous diluted solution. Bacteriolytic power (%)=[1−(the number of bacterial cells in sample after 3 days/the number of bacterial cells of blank)]×100 Determination Criteria: […]
row,Compound,Bacteriolytic power (score)
1,"CC(=O)[O-].CCCCCCCCCC[N+](C)(C)CCCCCCCCCC [Example 4, acetate salt of didecyldimethylammonium]",5 (Bacteriolytic power ≧ 80%)
2,"CCCCCCCCCC[N+](C)(C)CCCCCCCCCC.[Cl-] [compound 3, didecyldimethylammonium chloride, reference compound]",4 (60% ≦ Bacteriolytic power < 80%)
3,cyclopentanetetracarboxylic acid salt of distearyldimethylammonium [Example 5],4 (60% ≦ Bacteriolytic power < 80%)
4,adipate salt of didecyldimethylammonium [Example 3],5 (Bacteriolytic power ≧ 80%)
5,citric acid salt of didecyldimethylammonium [Example 2],5 (Bacteriolytic power ≧ 80%)
6,cyclopentane tetracarboxylic acid salt of didecyldimethylammonium [Example 1],5 (Bacteriolytic power ≧ 80%)

# System: not given
# Experiment: not given
# Conditions: 25° C.; cited from earlier work
row,Compound,"pKa (pKa1, first stage dissociation constant)"
1,O=C(O)CCCC(=O)O [glutaric acid],4.3
2,O=C(O)c1cc(C(=O)O)c(C(=O)O)cc1C(=O)O [pyromellitic acid],1.9
3,O=C(O)CCCCCCCC(=O)O [azelaic acid],4.6
4,CCCCCC(=O)O [caproic acid],4.9
5,CCOP(=O)(O)O [ethylphosphoric acid],1.6
6,COP(=O)(O)O [methylphosphoric acid],1.5
7,N[C@@H](CCC(=O)O)C(=O)O [glutamic acid],2.3
8,O=C(O)[C@H](O)[C@@H](O)[C@H](O)[C@H](O)CO [gluconic acid],2.2

# Same assay, conditions: second stage dissociation; cited from earlier work
row,Compound,pKa2
1,O=C(O)CCCCC(=O)O [adipic acid],5.3
